Patent US8278326B2, “Inhibitors of protein phosphatase-1 and uses thereof” (Howard University, priority 2008, dated 2012)

Legend:
HIV-1 transcription [1] = assay: Inhibition of Tat-induced HIV-1 transcription in Ad-Tat-infected CEM GFP reporter cells; type: cell-based; conditions: for inhibition of HIV-1 transcription in CEM cells: CEM T-cells, 1H4-based library, in words
Protocol: (§1) Identification of the inhibitory compounds: The library was analyzed for the inhibition of HIV-1 transcription using reporter CEM GFP cells (courtesy of AIDS Reagents Program, NIH) that were infected with adenovirus expressing HIV-1 Tat activator protein (Ad-Tat) as previously described (Nekhai et al., 2007). Infection of CEM-GFP cells with Adeno-Tat induced HIV-1 transcription that was measured as gain of GFP fluorescence (Nekhai et al., 2007). Compounds were added at 25 μM concentration to the Ad-Tat-infected CEM-GFP cells and incubated for 24-48 hours. Cytotoxicity was evaluated by the uptake of propidium iodide (PI).

CEM GFP cells = assay: Cytotoxicity in CEM cells by uptake of propidium iodide; type: cell-based; conditions: 1H4-based library
Protocol: as §1
Identification of addition inhibitors. The 1H4 compound was used to create a second library of compounds that would have similar backbone as 1H4. This second library contained 143 compounds. These compounds were analyzed for the inhibition of HIV-1 transcription and toxicity in CEM T-cells and 293T cells similar as described above for the analysis of the first library.

[2] = tested on: Tat-induced HIV-1 transcription; assay: Inhibition of Tat-induced HIV-1 transcription in 293T cells transfected with Tat-expressing vector, HIV-1 LTR-LacZ reporter and CMV-EGFP reporter; type: cell-based; conditions: for inhibition of Tat-induced HIV-1 transcription in 293T cells: in words
Protocol: (§2) The compounds from Table 2 were further evaluated using 293T cells transfected with Tat- and HIV-1 LTR-LacZ. […] Compounds 1H4, 3C8, and 1G3 were further evaluated in 293T cells transfected with Tat-expressing vector, HIV-1 LTR-LacZ reporter and CMV-EGFP reporter. Inhibitory properties of these compounds were evaluated using 293T cells transfected with Tat-expressing vector, HIV-1 LTR-LacZ reporter and CMV-EGFP reporter (Ammosova et al., 2005a). 293T cells were transfected with lipofectamine and then treated with each of the selected compounds for 18 hours. Then the cells were lysed and GFP and β-galactosidase activity was determined as we previously described (Ammosova et al., 2005a). Compound 1H4 was the most inhibitory with IC50=5 μM (FIG. 1B). […] Neither of the compounds was cytotoxic as determined by LDH assay (not shown).

HIV-1 IIIB = assay: Inhibition of HIV-1 replication, IIIB (Table 6); type: cell-based; conditions: for inhibition of HIV-1 replication: Table 6 (IIIB, Q148R, N155H); for IC50: read-out: IIIB, IC50, HIV-1 replication
Protocol: (§3) Compounds 1H4, 1E07, B03 and as a control 1G3 were analyzed for inhibition of HIV-1 replication and results are shown in Table 6.

HIV-1 Q148R = assay: Inhibition of HIV-1 replication, Q148R (Table 6); type: cell-based; conditions: read-out: Q148R, IC50
Protocol: as §3

HIV-1 N155H = assay: Inhibition of HIV-1 replication, N155H (Table 6); type: cell-based; conditions: read-out: N155H, IC50
Protocol: as §3

HIV-1 transcription [3] = assay: Inhibition of transcription, FIG. 1A (293T cells transfected with Tat- and HIV-1 LTR-LacZ); type: cell-based
Protocol: as §2

293T cells = assay: Measurements of cytotoxicity, FIG. 1A; type: cell-based
Protocol: as §2

recombinant pNL4-3 HIV-1 = assay: HIV-1 replication in MT4 cells infected with recombinant pNL4-3 HIV-1; type: cell-based; conditions: for inhibition of HIV-1 replication: MT4 cells, 1H4 at 10 μM or 25 μM (FIG. 2)
Protocol: HIV-1 replication is inhibited by a small molecular mimetic of QVCF peptide. The 1H4 compound was evaluated to determine whether it could inhibit HIV-1 replication. MT4 cells were infected with recombinant pNL4-3 HIV-1 and treated with different concentrations of 1H4 compound and as a control 1G3 compound.

PP1 = assay: Tat-PP1 competition assay (PP1 activity); type: biochemical; conditions: for effect on Tat-mediated inhibition of PP1: 50 μM compound, 4 nM PP1, glycylglycine buffer (FIG. 3A)
Protocol: (§4) Competition assays were performed with 4 nM PP1 in glycylglycine buffer. […] To analyze if 1H4 compound has an effect on the activity of CDK2 we incubated recombinant CDK2/cyclin E with histone H1 without or with the addition of increasing concentrations of 1H4.

[4] = target: recombinant CDK2/cyclin E (Homo sapiens, UniProt P24941); assay: CDK2/cyclin E activity with histone H1; type: biochemical; conditions: increasing concentrations; histone H1 substrate
Protocol: as §4

| Molecule | inhibition of Tat-induced HIV-1 transcription in 293T cells [2] | inhibition of HIV-1 replication (HIV-1 IIIB) | IC50 (HIV-1 IIIB) | IC50 (HIV-1 Q148R) | IC50 (HIV-1 N155H) | other results |
| --- | --- | --- | --- | --- | --- | --- |
| CC(OC(=O)c1c2c(nc3ccccc13)/C(=C/c1ccc(Cl)cc1)CC2)C(=O)NC(N)=O (centres unmarked) | – | – | – | – | – | inhibition of HIV-1 transcription (HIV-1 transcription [1]; cell line not stated, appeared to increase the rate of transcription instead): ineffective for inhibition of HIV-1 transcription |
| COc1ccc(C(CNC(=O)CN2CCc3ccccc3C2)c2c[nH]c3ccccc23)cc1 (centres unmarked) [1E07] | inhibited HIV-1 transcription | inhibited HIV-1 replication | 2.5 µM | 1.5 µM | 3.2 µM | inhibition of HIV-1 transcription in CEM cells (HIV-1 transcription [1]): inhibited HIV-1 transcription; toxicity in the propidium iodide uptake assay (CEM GFP cells): not toxic |
| COc1ccc(C(CNC(=O)CN2CCc3ccccc3C2)c2c[nH]c3ccccc23)cc1 (centres unmarked) [1G3, reference compound] | – | – | 37 µM | 42 µM | 59 µM | inhibition of HIV-1 transcription (FIG. 1A) (HIV-1 transcription [3]): neither inhibitory nor toxic; cytotoxicity (FIG. 1A) (293T cells): neither inhibitory nor toxic; induction of HIV-1 replication (recombinant pNL4-3 HIV-1; MT4 cells (FIG. 2)): about 2 fold; inhibition of HIV-1 replication (recombinant pNL4-3 HIV-1): did not inhibit HIV-1 replication; effect on Tat-mediated inhibition of PP1 (PP1): did not affect Tat-mediated inhibition of PP1 |
| COc1ccc(C(CNC(=O)CN2CCc3ccccc3C2)c2c[nH]c3ccccc23)cc1 (centres unmarked) [1H4] | – | inhibited HIV-1 replication | 9.4 µM | 4.7 µM | 8 µM | IC50 ([2]; Human immunodeficiency virus 1, HEK-293T, read-out: Transcription inh. in 293T cells (IC-50)): 5 µM; inhibition of HIV-1 transcription (FIG. 1A) (HIV-1 transcription [3]): inhibited HIV-1 transcription; cytotoxicity (FIG. 1A) (293T cells): not toxic; inhibition of HIV-1 replication (recombinant pNL4-3 HIV-1): inhibited HIV-1 replication; effect on Tat-mediated inhibition of PP1 (PP1): relieved Tat-mediated inhibition of PP1; effect on the activity of CDK2 [4]: did not have a significant effect |
| COc1ccc(C(CNC(=O)CN2CCc3ccccc3C2)c2c[nH]c3ccccc23)cc1 (centres unmarked) [2F02] | inhibited HIV-1 transcription | – | – | – | – | inhibition of HIV-1 transcription in CEM cells (HIV-1 transcription [1]): inhibited HIV-1 transcription |
| COc1ccc(C(CNC(=O)CN2CCc3ccccc3C2)c2c[nH]c3ccccc23)cc1 (centres unmarked) [B03] | inhibitory | not inhibitory | – | – | – | – |
| COc1ccc(C(CNC(=O)CN2CCc3ccccc3C2)c2c[nH]c3ccccc23)cc1 (centres unmarked) [E06] | inhibitory | – | – | – | – | – |
| Tat: HIV-1 Tat protein that binds to the RVxF pocket of PP1 (protein, UniProt P04608 1-86, looked up) Protein Tat: MEPVDPRLEPWKHPGSQPKTACTNCYCKKCCFHCQVCFITKALGISYGRKKRRQRRRAHQNSQTHQASLSKQPTSQPRGDPTGPKE | – | – | – | – | – | inhibition of PP1 (PP1; excess of Tat protein, 4 nM PP1 (FIG. 3A)): inhibited PP1 |
